Reference: patent publication US10125112B2, “Modulators of the relaxin receptor 1” (The United States of America, as Represented by the …, priority 2012, dated 2018)
≈ marks a conversion by molar mass, not a printed value.

Legend:
[1] = system: cAMP in THP-1 cells; experiment: cyclic AMP assay in THP-1 cells; format: cell-based; details: Homo sapiens, THP-1, 0.5 h
Description: This Example illustrates the cyclic AMP assay in THP-1 cells. THP-1 cells were propagated in RPMI-1640 supplemented with 20% FBS, 0.05 mM β-mercaptoethanol, 100 U/mL penicillin and 100 μg/mL streptomycin at 37° C. in 5% CO2. Before assaying for cAMP response, cells were serum starved in RPMI-1640 supplemented with 0.05 mM (3-mercaptoethanol, 100 U/mL penicillin and 100 μg/mL streptomycin at 37° C. in 5% CO2 for 16 hrs. For 384-well format assays, cells were seeded as 30,000 cells/well in 30 μL/well media with a MultiDrop Combi dispenser (Thermo Scientific, Waltham, Mass.). Subsequently, 2 μL/well of 1.6 mM Ro 20-1724 and 160 uM forskolin in PBS+ (DPBS, 1 mM CaCl2, 0.5 mM MgCl2, 0.05% BSA, 0.005% Tween 20) was dispensed using a BioRAPTR FRD dispenser (Beckman Coulter, Brea, Calif.). Immediately after, 0.25 μL/well of compound solutions in DMSO was dispensed with CyBi-well dispenser (CyBio, Jena, Germany). The cells were allowed to be stimulated with compounds for 30 min at 37° C. in 5% CO2, after which, 8 μL/well of each HTRF cAMP HiRange kit (CisBio, Bedford, Mass.) detection reagent was dispensed with a BioRAPTR FRD dispenser. The detection reagents were diluted as such: K-α-cAMP antibody at 1:20 and cAMP-d2 at 1:18 in HTRF lysis buffer (supplied by the assay kit). The plates were incubated for 30 min at room temperature before the signal was read on an Envision plate reader (PerkinElmer, Waltham, Mass.).

[2] = target: T1, RXFP2 (Homo sapiens, UniProt Q8WXD0); experiment: RXFP2 cAMP assay in HEK293-RXFP2 cells; format: cell-based; details: for Emax: 0.5 h, read-out: RXFP2 AC50 (μM, Max. Resp.): Max. Resp.; for AC50: HEK293-RXFP2 cells, inactive = Maximum response less than 30%, read-out: RXFP2 AC50 (μM, Max. Resp.): AC50
T1 construct: expressed in transfected cells
Description: HEK293 cells stably transfected with RXFP2, the cognate receptor for another relaxin family peptide, insulin-like 3, (HEK293-RXFP2) was used to test compound specificity towards the RXFP1 receptor. For this assay, cells were seeded at 8,000 cells/well in 30 µL/well of media with a MultiDrop Combi dispenser (Thermo Scientific), and allowed to attach overnight at 37° C., 5% CO2. Next, 2 µL/well of 1.6 mM Ro 20-1724 solution in PBS+(DPBS, 1 mM CaCl2, 0.5 mM MgCl2, 0.05% BSA, 0.005% Tween 20) were dispensed using a BioRAPTR FRD dispenser (Beckman Coulter, Brea, Calif.), followed addition of 0.25 μL/well of compound solution in DMSO with CyBi-well dispenser (CyBio, Jena, Germany). The cells were allowed to be stimulated with the compounds for 30 minutes at 37° C., 5% CO2, after which, 8 μL/well of each HTRF detection reagent (diluted according to assay kit directions in HTRF lysis buffer) was dispensed with a BioRAPTR FRD dispenser. The plates were incubated for 30 minute at 37° C., and then the signal was read on a ViewLux plate reader (PerkinElmer, Waltham, Mass.).

[3] = target: T2, vasopressin receptor 1b (Homo sapiens, UniProt P47901); experiment: V1b cAMP assay in HEK293-V1b cells; format: cell-based; details: inactive = Maximum response less than 30%
T2 construct: expressed in transfected cells
T2 sequence (P47901 1-424): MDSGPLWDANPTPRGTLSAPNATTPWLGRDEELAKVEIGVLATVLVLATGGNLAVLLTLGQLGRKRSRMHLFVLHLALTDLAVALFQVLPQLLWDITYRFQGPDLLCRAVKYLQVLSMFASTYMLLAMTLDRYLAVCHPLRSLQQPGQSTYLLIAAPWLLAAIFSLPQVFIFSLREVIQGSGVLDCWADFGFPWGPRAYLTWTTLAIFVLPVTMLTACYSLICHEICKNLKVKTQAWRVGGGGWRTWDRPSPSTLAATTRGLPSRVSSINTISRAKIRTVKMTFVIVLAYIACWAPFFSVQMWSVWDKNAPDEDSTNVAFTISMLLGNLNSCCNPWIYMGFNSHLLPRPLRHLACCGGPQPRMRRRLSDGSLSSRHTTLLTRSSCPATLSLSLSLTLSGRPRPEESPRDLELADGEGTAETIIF
Description: HEK293 stably transfected with a nonrelated G protein coupled receptor, vasopressin receptor 1b (HEK293-V1b), were used as an additional counter screen to eliminate compounds that increase cAMP HTRF signal through non-RXFP1 dependent mechanisms. For this assay, cells were seeded at 8,000 cells/well in 30 µL/well media with a MultiDrop Combi dispenser (Thermo Scientific, Logan, Utah), and allowed to attach overnight at 37° C., 5% CO2. Next, 2 μL/well of 1.6 mM Ro 20-1724 solution in PBS+(DPBS, 1 mM CaCl2, 0.5 mM MgCl2, 0.05% BSA, 0.005% Tween 20) was dispensed using a BioRAPTR FRD dispenser (Beckman Coulter, Brea, Calif.), followed by additional of 0.25 μL/well of compound solution in DMSO with CyBi-well dispenser (CyBio, Jena, Germany). The cells were allowed to be stimulated with the compounds for 30 minutes at 37° C., 5% CO2, after which, 8 μL/well of each HTRF detection reagent (diluted according to assay kit directions in HTRF lysis buffer) was dispensed with a BioRAPTR FRD dispenser. The plates were incubated for 30 minute at room temperature, and then the signal was read on a ViewLux plate reader (PerkinElmer, Waltham, Mass.).

[4] = PBS solubility; format: physicochemical
[5] = target: T3, RXFP1 (Homo sapiens, UniProt Q9HBX9); experiment: RXFP1 cAMP assay in HEK293-RXFP1 cells (HTRF); format: cell-based; details: percentage of the maximal receptor activation induced by high concentrations of forskolin; Tables 1-7; read-out: Max Response
T3 construct: expressed in transfected cells
T3 sequence (Q9HBX9 1-757): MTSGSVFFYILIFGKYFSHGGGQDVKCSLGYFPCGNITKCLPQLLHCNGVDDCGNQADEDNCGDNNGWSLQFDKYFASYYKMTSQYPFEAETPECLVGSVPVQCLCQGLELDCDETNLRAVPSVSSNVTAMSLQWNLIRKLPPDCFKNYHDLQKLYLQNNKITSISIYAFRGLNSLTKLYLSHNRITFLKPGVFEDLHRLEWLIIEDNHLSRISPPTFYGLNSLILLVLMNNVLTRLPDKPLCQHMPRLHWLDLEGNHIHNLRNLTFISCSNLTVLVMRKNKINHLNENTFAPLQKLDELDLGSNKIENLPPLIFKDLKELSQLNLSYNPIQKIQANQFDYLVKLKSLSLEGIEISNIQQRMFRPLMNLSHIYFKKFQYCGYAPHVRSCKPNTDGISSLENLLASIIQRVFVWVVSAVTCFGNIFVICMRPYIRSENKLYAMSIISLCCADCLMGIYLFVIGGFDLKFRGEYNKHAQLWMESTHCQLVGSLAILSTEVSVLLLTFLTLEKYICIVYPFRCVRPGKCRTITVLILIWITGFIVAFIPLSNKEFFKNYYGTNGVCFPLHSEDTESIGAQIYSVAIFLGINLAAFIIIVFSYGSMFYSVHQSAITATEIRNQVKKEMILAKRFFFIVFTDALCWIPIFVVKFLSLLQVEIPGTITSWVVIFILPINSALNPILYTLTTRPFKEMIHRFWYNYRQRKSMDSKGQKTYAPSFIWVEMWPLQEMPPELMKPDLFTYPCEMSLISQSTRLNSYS
Description: The RXFP1 receptor couples to the Gs protein, and activation of the receptor results in stimulation of cAMP production. […] The TR-FRET between the K-α-cAMP and cAMP-d2 is disrupted by cAMP in the cell lysates, thus allowing TR-FRET detection in a homogenous format that is suitable for HTS. […] The primary screen was carried out in 1536-well format, however, because of a more robust signal to background ratio, all subsequent follow-up experiments were carried out in 384-well format.
For the primary screen, HEK293-RXFP1 cells were seeded at 2,000 cells/well in 3 μL/well media with a MultiDrop Combi dispenser (Thermo Scientific, Logan, Utah), and allowed to attach overnight at 37° C., 5% CO2. […] The cells were allowed to be stimulated with the compounds for 30 minutes at 37° C., 5% CO2, after which, 1 μL/well of each HTRF detection reagent was dispensed with a BioRAPTR FRD dispenser. The detection reagents were diluted before addition as follows: K-α-cAMP antibody at 1:20 and cAMP-d2 at 1:18 in HTRF lysis buffer (supplied by the assay kit). The plates were incubated for 30 minute at room temperature, and then the signal was read on a ViewLux plate reader (PerkinElmer, Waltham, Mass.).
The assay was run according to the following protocol:
Max Response indicates what the maximal amount of functional activity induced by the compound is, as a percentage of the maximal receptor activation induced by high concentrations of forskolin.

[6] = ATP Cytotoxicity assay (ATPLite) in HEK293-RXFP1 cells; format: cell-based; details: human, inactive = Maximum response less than 30%, read-out: ATP Tox. EC50 (μM, Max. Resp.): EC50
Description: This follow-up assay was conducted to measure the effect of compounds on cell viability by measuring ATP levels (ATPLite™). ATPLite™ is an Adenosine TriPhosphate (ATP) monitoring system based on firefly (Photinus pyralis) luciferase. The level of ATP in a metabolically active cell is a general marker for its viability. ATP levels are often reduced during necrosis or apoptosis. In this assay, the luciferase enzyme catalyzes the conversion of the added substrate D-luciferin to oxyluciferin and light with ATP. Thus, the emitted light is proportional to the ATP concentration. […] After compound incubation, the levels of ATP in each well were measured with the addition of the ATPLite assay reagent.

T1 sequence (Q8WXD0 whole entry, species assumed): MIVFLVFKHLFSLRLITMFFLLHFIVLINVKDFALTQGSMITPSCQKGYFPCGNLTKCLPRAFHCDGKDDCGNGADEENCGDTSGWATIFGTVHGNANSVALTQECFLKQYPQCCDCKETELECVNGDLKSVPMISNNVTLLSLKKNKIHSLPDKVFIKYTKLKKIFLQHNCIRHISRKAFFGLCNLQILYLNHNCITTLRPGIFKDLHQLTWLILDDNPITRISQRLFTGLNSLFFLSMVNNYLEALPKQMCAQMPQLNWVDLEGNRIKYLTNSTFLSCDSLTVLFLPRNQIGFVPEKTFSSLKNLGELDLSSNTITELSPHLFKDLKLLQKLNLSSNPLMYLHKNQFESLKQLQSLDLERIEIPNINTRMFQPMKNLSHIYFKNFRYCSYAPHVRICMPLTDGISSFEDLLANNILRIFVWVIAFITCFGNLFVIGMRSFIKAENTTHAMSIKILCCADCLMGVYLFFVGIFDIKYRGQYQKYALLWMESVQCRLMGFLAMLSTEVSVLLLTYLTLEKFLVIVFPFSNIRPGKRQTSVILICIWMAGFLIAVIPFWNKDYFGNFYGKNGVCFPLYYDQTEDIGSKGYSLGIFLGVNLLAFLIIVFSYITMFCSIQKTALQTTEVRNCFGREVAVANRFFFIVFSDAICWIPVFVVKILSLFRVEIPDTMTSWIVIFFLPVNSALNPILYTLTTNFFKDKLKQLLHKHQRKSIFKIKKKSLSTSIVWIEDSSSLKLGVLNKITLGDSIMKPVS

Compound | EC50 [1] [µM] | Emax [2] [%] | AC50 [2] [µM] | V1b AC50 (μM, Max. Resp.): AC50 [3] | PBS Solubility [4] [µM] | Emax [5] [%] | EC50 at 72 h [6] [µM] | solubility ([4]; aqueous buffer) [µM]
CCOc1ccccc1C(=O)Nc1ccccc1C(=O)Nc1cccc(S(=O)(=O)C(F)(F)F)c1 [Example 174, 2-Ethoxy-N-(2-((3-((trifluoromethyl)sulfonyl)phenyl)carbamoyl)phenyl)benzamide] | 0.362 | 38 | 7.47 | inactive^a | <1.1 | – | – | –
CCCOc1ccccc1C(=O)Nc1ccccc1C(=O)Nc1cccc(S(=O)(=O)C(F)(F)F)c1 [Example 179] | – | – | – | – | – | 98 | 9.4 | –
COc1ccccc1C(=O)Nc1ccccc1C(=O)Nc1cccc(SC(F)(F)F)c1 [Example 158] | – | 54 | 3.34 | – | – | 99 | 3.74 | 2.9 (≈ 1.29 µg/mL)
